Test results published in US8063225B2, “Tricyclic compound derivatives useful in the treatment of neoplastic diseases, inflammatory disorders and immunomodulatory disorders” (Chembridge Corporation, priority 2006, dated 2011).

Experiments:
[1] = target: T1, IGF1R tyrosine kinase (Homo sapiens, UniProt P08069); experiment: IGF1R tyrosine kinase assay (Kinase-Glo ATP depletion or PT66/PT100 AlphaScreen); settings: biochemical tyrosine kinase assay
T1 construct: 6×His- or GST-tagged kinase domain fragments of the corresponding RTKs expressed in baculovirus system; host or cells: baculovirus system
Summary of the method: (§1)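 Test compounds, eight concentrations from 1 nM to 20 μM, were incubated with tagged recombinant kinase domain, poly(Glu-Tyr, 4:1) and 10 μM ATP. After 60 minutes at 37° C, Kinase-Glo luminescence quantified unconsumed ATP.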

[2] = target: T2, InsR (Homo sapiens, UniProt P06213); experiment: Tyrosine kinase assay (Kinase-Glo or AlphaScreen), InsR; settings: biochemical tyrosine kinase assay
T2 construct: 6×His- or GST-tagged kinase domain fragments of the corresponding RTKs expressed in baculovirus system; host or cells: baculovirus system
Summary of the method: as §1

[3] = target: T3, Alk (Homo sapiens, UniProt Q9UM73); experiment: Tyrosine kinase assay (Kinase-Glo or AlphaScreen), Alk; settings: biochemical tyrosine kinase assay
T3 construct: 6×His- or GST-tagged kinase domain fragments of the corresponding RTKs expressed in baculovirus system; host or cells: baculovirus system
Summary of the method: as §1

[4] = target: T4, Jak2 (Homo sapiens, UniProt O60674); experiment: Tyrosine kinase assay (Kinase-Glo or AlphaScreen), Jak2; settings: biochemical tyrosine kinase assay
T4 construct: 6×His- or GST-tagged kinase domain fragments of the corresponding RTKs expressed in baculovirus system; host or cells: baculovirus system
Summary of the method: as §1

[5] = test system: H929 (multiple myeloma); experiment: Cell proliferation inhibition, Cell Titer-Glo, H929; assay type: cell-based; settings: Homo sapiens, NCI-H929; cell proliferation assay, H929 cells
Experimental: IGF1R and other tyrosine kinase inhibitors can inhibit the proliferation of certain cancer cell lines indicating their possible therapeutic utility for treating the corresponding cancer types. Cancer cell lines of interest and control normal lines, including CHO, HEK293, BA/F3, MM1, H929, COLO205, PC3, DU145, MCF7, Panc1, ACHN, Hep G2, H460, K562, TT, U87-G, CAOV-3, SK-MEL5, Karpas 299, are plated in white, clear-bottomed 384-well cell culture plates at 2500-5000 cells per well and supplied with dilutions of tested compounds After a desired period of time (typically 3 days), the number of viable cells is quantitated by using Cell Titer-Glo Luminescent Cell Viability Assay (Promega), a cell proliferation assay system based on detection of total amount of ATP present as a measure of cell metabolic activity. The plated cells are mixed with the Cell Titer-Glo developing reagent and counted in a luminescence multiwell plate reader according to the standard manufacturer's protocol to generate IC50 curves for cell proliferation inhibition.
IGF1R and other tyrosine kinase inhibitors can inhibit the proliferation of certain cancer cell lines indicating their possible therapeutic utility for treating the corresponding cancer types. Cancer cell lines of interest and control normal lines, including CHO, HEK293, BA/F3, COLO205, PC3, DU145, MCF7, Panc1, ACHN, Hep G2, H460, K562, TT, U87-MG, CAOV-3, SK-MEL5, Karpas 299 and human multiple myeloma cell lines H929, MM1s, MM1r, UTMC2, CPM2, KMS11, My5, KMS12PE, My7, JJN3, KMS18, U266, SKMM2, RPMI-8226 are plated in white, clear-bottomed 384-well cell culture plates at 2500-5000 cells per well and supplied with dilutions of tested compounds After a desired period of time (typically 3 days), the number of viable cells is quantitated by using Cell Titer-Glo Luminescent Cell Viability Assay (Promega), a cell proliferation assay system based on detection of total amount of ATP present as a measure of cell metabolic activity. The plated cells are mixed with the Cell Titer-Glo developing reagent and counted in a luminescence multiwell plate reader according to the standard manufacturer's protocol to generate IC50 curves for cell proliferation inhibition. Results are typically reported as percent of growth (% viability =(OD72h(compound)−ODday0))/(OD72h(no compound)−ODday0). Alternatively, viable cells are quantitated by using the conventional colorimetric MTT assay. The MTT assay is based on the cleavage of the yellow tetrazolium salt MTT to purple formazan crystal by metabolic active cells. The formazan is then solubilized, and the concentration determined by optical density at 570 nm. The cells plated and incubated with a compound as described above are supplemented with the solution of MTT and incubated for 2-3 hours. The growth medium is removed and dimethyl sulfoxide is added into each well to dissolve the formazan. The absorbance is measured on an ELISA plate reader with a test wavelength of 570 nm and a background subtraction wavelength of 630 nm to obtain sample signal (OD570-OD630). […] The results are reported in terms of IC50 value for a particular compound and a cell line in the standard 3-day proliferation assay using Cell Titer-Glo. […] The results are reported in terms of IC50 value for a particular compound and a cell line in the standard 3-day proliferation assay using MTT assay.

[6] = test system: Ba/F3; experiment: Cell proliferation inhibition, Cell Titer-Glo, Ba/F3; assay type: cell-based; settings: Mus musculus, BaF3; cell proliferation assay, Ba/F3 cells
Summary of the method: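 Ba/F3 cells were seeded at 2500-5000 cells per well in white, clear-bottomed 384-well culture plates and exposed to serial dilutions of test compounds for 3 days. Cell Titer-Glo Luminescent Cell Viability Assay (Promega) reagent, which measures total ATP as an indicator of metabolic activity, was added. Luminescence was read on a multiwell plate reader to derive IC50 values for inhibition of proliferation.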

[7] = test system: Karpas-299; experiment: Cell proliferation inhibition, Cell Titer-Glo, Karpas-299; assay type: cell-based; settings: Homo sapiens; cell proliferation assay, Karpas-299 cells
Summary of the method: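 Karpas 299 cells were seeded into white, clear-bottomed 384-well culture plates at 2500-5000 cells per well and exposed to serial dilutions of test compounds for about 3 days. Viable cell numbers were then measured with the Cell Titer-Glo Luminescent Cell Viability Assay (Promega), which detects total ATP, and IC50 values for proliferation inhibition were derived.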

[8] = test system: K562; experiment: Cell proliferation inhibition, Cell Titer-Glo, K562; assay type: cell-based; settings: Homo sapiens; cell proliferation assay, K562 cells
Summary of the method: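 K562 cells were seeded at 2500-5000 cells per well in white, clear-bottomed 384-well culture plates and treated with dilutions of test compounds for typically 3 days. Viable cells were quantified with the Cell Titer-Glo Luminescent Cell Viability Assay (Promega), which measures total ATP, read on a luminescence plate reader to derive IC50 values for proliferation inhibition.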

T2 sequence (P06213 1023-1298 limits assumed, species assumed): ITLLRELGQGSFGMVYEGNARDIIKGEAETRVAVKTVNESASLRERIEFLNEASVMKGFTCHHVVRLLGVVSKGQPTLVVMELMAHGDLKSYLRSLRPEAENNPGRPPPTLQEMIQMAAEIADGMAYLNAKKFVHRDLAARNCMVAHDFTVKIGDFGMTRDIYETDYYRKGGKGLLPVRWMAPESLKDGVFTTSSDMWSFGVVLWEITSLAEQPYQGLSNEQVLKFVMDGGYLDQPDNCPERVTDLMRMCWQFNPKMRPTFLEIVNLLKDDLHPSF
T1 sequence (P08069 999-1274 limits assumed): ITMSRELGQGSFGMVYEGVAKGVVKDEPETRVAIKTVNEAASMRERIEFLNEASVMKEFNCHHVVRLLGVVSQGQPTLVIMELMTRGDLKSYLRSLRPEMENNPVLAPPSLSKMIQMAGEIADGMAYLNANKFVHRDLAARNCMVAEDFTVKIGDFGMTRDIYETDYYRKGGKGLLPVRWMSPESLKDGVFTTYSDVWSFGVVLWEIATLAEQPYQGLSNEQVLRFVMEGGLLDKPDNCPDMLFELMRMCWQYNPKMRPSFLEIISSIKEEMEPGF
T4 sequence (O60674 849-1124 limits assumed, species assumed): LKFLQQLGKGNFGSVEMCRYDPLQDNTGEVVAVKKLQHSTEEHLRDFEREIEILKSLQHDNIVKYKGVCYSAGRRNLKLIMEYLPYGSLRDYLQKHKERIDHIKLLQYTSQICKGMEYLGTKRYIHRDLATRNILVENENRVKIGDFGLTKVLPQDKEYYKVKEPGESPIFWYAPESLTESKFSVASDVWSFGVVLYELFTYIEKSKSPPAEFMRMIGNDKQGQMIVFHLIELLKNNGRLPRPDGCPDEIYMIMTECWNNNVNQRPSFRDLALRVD
T3 sequence (Q9UM73 1116-1392 limits assumed, species assumed): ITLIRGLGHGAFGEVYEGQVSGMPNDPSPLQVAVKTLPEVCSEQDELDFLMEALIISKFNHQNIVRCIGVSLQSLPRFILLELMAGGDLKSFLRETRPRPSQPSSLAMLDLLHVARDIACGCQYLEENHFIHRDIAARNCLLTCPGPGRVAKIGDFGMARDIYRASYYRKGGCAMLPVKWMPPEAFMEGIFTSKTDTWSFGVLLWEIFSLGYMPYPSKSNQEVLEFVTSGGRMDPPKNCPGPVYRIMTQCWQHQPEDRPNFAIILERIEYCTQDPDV

Compound | IC50 [1] [µM] | IC50 [2] [µM] | IC50 [3] [µM] | IC50 [4] [µM] | IC50 [5] [µM] | IC50 [6] [µM] | IC50 [7] [µM] | IC50 [8] [µM]
COCCN1C(=O)c2cc3nc(-c4c(NC[C@@H](O)c5cccc(Cl)c5)cc[nH]c4=O)[nH]c3cc2C1=O [compound 36] | > 15 | > 15 | > 15 | > 15 | 0.5 to 5 | > 15 | > 15 | > 15
CN1CCC(N2C(=O)c3cc4nc(-c5c(N[C@@H](CO)Cc6c[nH]cn6)cc[nH]c5=O)[nH]c4cc3C2=O)CC1 [compound 3] | 0.5 to 5 | 0.5 to 5 | 5 to 15 | > 15 | 5 to 15 | > 15 | 5 to 15 | 5 to 15
CN1CCC(N2C(=O)c3cc4nc(-c5c(NCCc6c[nH]cn6)cc[nH]c5=O)[nH]c4cc3C2=O)CC1 [compound 4] | 0.5 to 5 | 0.5 to 5 | 0.5 to 5 | 0.5 to 5 | 5 to 15 | 5 to 15 | 0.5 to 5 | 5 to 15
COc1ccc2c(ccn2C[C@H](O)CNc2cc[nH]c(=O)c2-c2nc3cc4c(cc3[nH]2)C(=O)N(C2CCN(C)CC2)C4=O)c1 [compound 113] | 0.5 to 5 | 0.5 to 5 | < 0.5 | 0.5 to 5 | > 15 | > 15 | > 15 | > 15
O=C1c2cc3nc(-c4c(NC[C@@H](O)c5cccc(Cl)c5)cc[nH]c4=O)[nH]c3cc2C(=O)N1CCCN1CCCC1 [compound 35] | < 0.5 | < 0.5 | 0.5 to 5 | 0.5 to 5 | 5 to 15 | > 15 | > 15 | > 15
COc1cc(F)ccc1OC[C@H](O)CNc1ccnc(O)c1-c1nc2cc3c(cc2[nH]1)C(=O)N(C1CCN(C)CC1)C3=O [compound 57] | 0.5 to 5 | 0.5 to 5 | 0.5 to 5 | 0.5 to 5 | – | 0.5 to 5 | 5 to 15 | 5 to 15
CN1CCC(N2C(=O)c3cc4nc(-c5c(NC[C@@H](O)COc6cccc(C(F)(F)F)c6)ccnc5O)[nH]c4cc3C2=O)CC1 [compound 73] | 0.5 to 5 | 0.5 to 5 | 5 to 15 | 0.5 to 5 | – | > 15 | 0.5 to 5 | 0.5 to 5
COc1cc(C)ccc1OC[C@H](O)CNc1ccnc(O)c1-c1nc2cc3c(cc2[nH]1)C(=O)N(C1CCN(C)CC1)C3=O [compound 54] | < 0.5 | 0.5 to 5 | 5 to 15 | > 15 | – | 5 to 15 | 5 to 15 | 5 to 15
CC(Nc1cc[nH]c(=O)c1-c1nc2cc3c(cc2[nH]1)C(=O)N(C1CCN(C)CC1)C3=O)C1COc2ccccc2O1 (centres unmarked) [compound 40] | 5 to 15 | 5 to 15 | 5 to 15 | 0.5 to 5 | – | 0.5 to 5 | 5 to 15 | 5 to 15
CN1CCC(N2C(=O)c3cc4nc(-c5c(NC[C@@H](O)COc6cccc(Br)c6)ccnc5O)[nH]c4cc3C2=O)CC1 [compound 76] | 0.5 to 5 | 0.5 to 5 | 0.5 to 5 | 0.5 to 5 | – | 0.5 to 5 | 0.5 to 5 | 0.5 to 5
O=C1c2cc3nc(-c4c(NC[C@@H](O)c5cccc(Cl)c5)ccnc4O)[nH]c3cc2C(=O)N1CCN1CCOCC1 [compound 8] | 0.5 to 5 | 0.5 to 5 | 0.5 to 5 | 0.5 to 5 | – | > 15 | > 15 | > 15

Now from value to compound:

IC50 [1] [µM] | IC50 [2] [µM] | IC50 [3] [µM] | IC50 [4] [µM] | IC50 [5] [µM] | IC50 [6] [µM] | IC50 [7] [µM] | IC50 [8] [µM] | Compound
0.5 to 5 | 0.5 to 5 | 5 to 15 | 5 to 15 | 5 to 15 | 0.5 to 5 | 0.5 to 5 | 5 to 15 | COc1ccccc1OCC(O)CNc1cc[nH]c(=O)c1-c1nc2cc3c(cc2[nH]1)C(=O)N(C1CCN(C)CC1)C3=O (centres unmarked) [compound 41]
< 0.5 | 0.5 to 5 | 5 to 15 | 0.5 to 5 | 5 to 15 | 0.5 to 5 | 0.5 to 5 | 5 to 15 | Cc1ccc(OC[C@H](O)CNc2cc[nH]c(=O)c2-c2nc3cc4c(cc3[nH]2)C(=O)N(C2CCN(CCN(C)C)CC2)C4=O)c(C)c1 [compound 126]
< 0.5 | 0.5 to 5 | 0.5 to 5 | 0.5 to 5 | > 15 | > 15 | > 15 | > 15 | O=C1c2cc3nc(-c4c(NC[C@@H](O)COc5c(F)ccc(Cl)c5F)cc[nH]c4=O)[nH]c3cc2C(=O)N1C1CCN(CCCO)CC1 [compound 136]
< 0.5 | 0.5 to 5 | 0.5 to 5 | 0.5 to 5 | > 15 | > 15 | > 15 | > 15 | Cc1ccc(OC[C@H](O)CNc2cc[nH]c(=O)c2-c2nc3cc4c(cc3[nH]2)C(=O)N(C2CCN(CCO)CC2)C4=O)c(C)c1 [compound 123]
< 0.5 | 0.5 to 5 | 5 to 15 | 5 to 15 | 5 to 15 | > 15 | > 15 | 5 to 15 | COc1ccc(OCC(O)CNc2cc[nH]c(=O)c2-c2nc3cc4c(cc3[nH]2)C(=O)N(C2CCN(C)CC2)C4=O)cc1 (centres unmarked) [compound 42]
< 0.5 | 0.5 to 5 | 0.5 to 5 | 0.5 to 5 | > 15 | > 15 | > 15 | > 15 | O=C1c2cc3nc(-c4c(NC[C@@H](O)COc5c(F)ccc(Cl)c5F)cc[nH]c4=O)[nH]c3cc2C(=O)N1C1CCN(CCO)CC1 [compound 125]
0.5 to 5 | 0.5 to 5 | 0.5 to 5 | 0.5 to 5 | > 15 | > 15 | 5 to 15 | > 15 | Cc1c(Cl)cccc1OC[C@H](O)CNc1cc[nH]c(=O)c1-c1nc2cc3c(cc2[nH]1)C(=O)N(C1CCN(CCO)CC1)C3=O [compound 124]
0.5 to 5 | 0.5 to 5 | 0.5 to 5 | 0.5 to 5 | 0.5 to 5 | > 15 | > 15 | 5 to 15 | CN1CCC(N2C(=O)c3cc4nc(-c5c(NCC(O)COc6cccc(Cl)c6)cc[nH]c5=O)[nH]c4cc3C2=O)CC1 (centres unmarked) [compound 38]
